Source: publication PMC10223062, “Discovery of Novel Thiophene/Hydrazones: In Vitro and In Silico Studies against Pancreatic Cancer” (Pharmaceutics, 2023)

How the values were obtained:
5-LOX = target: T1, 5-LOX (Homo sapiens, UniProt P09917); assay: Fluorometric 5-LOX inhibitor screening kit; type: biochemical; conditions: for 5-LOX Percent of İnhibition: at 10 µM
T1 construct: purchased MyBioSource
T1 sequence (P09917 1-674): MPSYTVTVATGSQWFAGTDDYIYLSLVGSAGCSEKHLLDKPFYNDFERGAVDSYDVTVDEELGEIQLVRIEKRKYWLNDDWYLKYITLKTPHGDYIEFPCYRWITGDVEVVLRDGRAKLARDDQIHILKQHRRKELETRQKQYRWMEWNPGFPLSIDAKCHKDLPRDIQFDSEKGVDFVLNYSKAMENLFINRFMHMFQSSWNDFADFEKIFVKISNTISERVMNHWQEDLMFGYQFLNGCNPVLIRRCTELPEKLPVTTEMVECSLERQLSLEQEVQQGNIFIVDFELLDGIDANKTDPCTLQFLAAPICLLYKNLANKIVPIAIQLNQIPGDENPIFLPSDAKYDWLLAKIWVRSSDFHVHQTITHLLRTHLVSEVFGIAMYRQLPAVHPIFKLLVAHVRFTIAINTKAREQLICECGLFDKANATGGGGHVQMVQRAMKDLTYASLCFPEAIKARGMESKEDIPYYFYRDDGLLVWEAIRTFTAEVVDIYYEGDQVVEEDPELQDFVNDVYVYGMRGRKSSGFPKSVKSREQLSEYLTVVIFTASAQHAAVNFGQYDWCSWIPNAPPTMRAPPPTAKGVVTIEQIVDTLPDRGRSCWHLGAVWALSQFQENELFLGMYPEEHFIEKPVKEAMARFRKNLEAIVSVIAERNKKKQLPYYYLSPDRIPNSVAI
Protocol: COX-1 and COX-2 inhibitory activities were tested using fluorometric COX-1 and COX-2 inhibitor screening kits (Abcam, United Kingdom), and the 5-LOX inhibitory activity was tested using a fluorometric 5-LOX inhibitor screening kit (MyBioSource, USA). These assays are based on the fluorometric detection of Prostaglandin G2 (a product generated by the COX enzyme) or on the fluorometric detection of the intermediate generated by the 5-LOX enzyme. The experiments were conducted in accordance with the manufacturers’ instructions.
For the determination of 5-LOX inhibitory activity, tested compounds were dissolved in DMSO (5 mM stock solution) and then diluted with the same solvent to obtain the test solutions. Test solutions were added to wells in an amount of 2 µL in the final 100 µL reaction volume. […] EC, SC, IC, and all test solutions were analyzed in triplicate.

COX-2 = target: T2, COX-2 (Homo sapiens, UniProt P35354); assay: Fluorometric COX-2 inhibitor screening kit; conditions: for IC50: COX-2 IC50; for COX-2 Percent of İnhibition: at 10 µM
T2 sequence (P35354 18-604): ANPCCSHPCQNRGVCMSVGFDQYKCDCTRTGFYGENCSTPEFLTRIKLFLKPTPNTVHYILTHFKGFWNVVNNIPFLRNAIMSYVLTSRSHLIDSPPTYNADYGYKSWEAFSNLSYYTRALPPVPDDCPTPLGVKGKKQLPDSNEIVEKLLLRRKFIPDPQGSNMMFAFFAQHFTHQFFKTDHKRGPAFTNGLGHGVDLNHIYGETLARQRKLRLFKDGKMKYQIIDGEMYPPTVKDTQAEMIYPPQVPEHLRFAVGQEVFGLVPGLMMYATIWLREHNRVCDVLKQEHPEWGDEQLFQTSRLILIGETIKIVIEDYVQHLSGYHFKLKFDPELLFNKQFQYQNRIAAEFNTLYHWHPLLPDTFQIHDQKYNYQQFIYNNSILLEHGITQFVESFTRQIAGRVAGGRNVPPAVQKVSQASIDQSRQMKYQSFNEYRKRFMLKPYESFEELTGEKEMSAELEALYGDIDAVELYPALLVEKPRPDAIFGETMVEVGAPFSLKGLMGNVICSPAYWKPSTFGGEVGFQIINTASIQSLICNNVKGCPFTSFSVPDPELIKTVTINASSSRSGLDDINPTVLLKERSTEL
Protocol: For the determination of COX-1 and COX-2 inhibitory activity, the tested compounds were dissolved in dimethyl sulfoxide (DMSO, 5 mM stock solution) and then diluted with the same solvent to obtain the test solutions. The test solutions were further diluted 5× with COX Assay Buffer (2 µL of test solution: 8 µL COX Assay Buffer). […] Solvent Control (SC) was prepared by adding 2 µL DMSO and 8 µL COX Assay Buffer, while Sample (S) and Enzyme Control (EC) were prepared by adding 10 µL of diluted test solution and COX Assay Buffer, respectively, into assigned wells.

Row | Compound | IC50 (5-LOX) | 5-LOX Percent of İnhibition (5-LOX) | IC50 (COX-2) | COX-2 Percent of İnhibition (COX-2)
1 | COc1cc(/C=N/NC(=O)c2cc(-c3ccccc3)c(-c3ccccc3)s2)ccc1O [7e, N’-[(E)-(3-methoxy-4-hydroxyphenyl)methylidene]-4,5-diphenylthiophene-2-carbohydrazide] | 3.3 ± 0.07 µM | 60.69 ± 0.54% | 13.9 ± 0.76 µM | 49.41±1.12%
2 | COc1ccccc1/C=N/NC(=O)c1cc(-c2ccccc2)c(-c2ccccc2)s1 [7d, N’-[(E)-(2-methoxyphenyl)methylidene]-4,5-diphenylthiophene-2-carbohydrazide] | – | 15.61 ± 0.66% | – | 16.74 ± 3.36%
3 | COc1ccc(/C=N/NC(=O)c2cc(-c3ccccc3)c(-c3ccccc3)s2)cc1O [7f, N’-[(E)-(3-hydroxy-4-methoxyphenyl)methylidene]-4,5-diphenylthiophene-2-carbohydrazide] | 2.94 ± 0.2 µM | 60.56 ± 2.49% | 39 ± 3.41 µM | 38.41 ± 0.85%

Second part, the compound after the results:

Row | IC50 (5-LOX) | 5-LOX Percent of İnhibition (5-LOX) | IC50 (COX-2) | COX-2 Percent of İnhibition (COX-2) | Compound
4 | 3.78 ± 0.39 µM | 64.38 ± 0.46% | – | 13.57 ± 0.38% | O=C(N/N=C/c1ccccc1O)c1cc(-c2ccccc2)c(-c2ccccc2)s1 [7a, N’-[(E)-(2-hydroxyphenyl)methylidene]-4,5-diphenylthiophene-2-carbohydrazide]
5 | 2.6 ± 0.11 µM | 55.05 ± 1.37% | 10.1 ± 0.25 µM | 51.97 ± 2.51% | O=C(N/N=C/c1ccc(O)cc1)c1cc(-c2ccccc2)c(-c2ccccc2)s1 [7c, N’-[(E)-(4-hydroxyphenyl)methylidene]-4,5-diphenylthiophene-2-carbohydrazide]
